Reference: article PMC6199744, “Development of Chemical Proteomics for the Folateome and Analysis of the Kinetoplastid Folateome” (ACS Infectious Diseases, 2018)
Read-outs that look alike come from different tables or passages of the source.

Legend:
[1] = biological target: T. brucei lysate proteins (Trypanosoma brucei brucei, UniProt P07752); assay type: binding
[2] = biological target: T. brucei lysate proteins (Trypanosoma brucei brucei, UniProt P12861); assay type: binding
[3] = biological target: T. brucei lysate proteins (Trypanosoma brucei brucei, UniProt P13377); assay type: binding
T. brucei lysate proteins (Trypanosoma brucei brucei, UniProt P13377), sequence (P13377 whole entry): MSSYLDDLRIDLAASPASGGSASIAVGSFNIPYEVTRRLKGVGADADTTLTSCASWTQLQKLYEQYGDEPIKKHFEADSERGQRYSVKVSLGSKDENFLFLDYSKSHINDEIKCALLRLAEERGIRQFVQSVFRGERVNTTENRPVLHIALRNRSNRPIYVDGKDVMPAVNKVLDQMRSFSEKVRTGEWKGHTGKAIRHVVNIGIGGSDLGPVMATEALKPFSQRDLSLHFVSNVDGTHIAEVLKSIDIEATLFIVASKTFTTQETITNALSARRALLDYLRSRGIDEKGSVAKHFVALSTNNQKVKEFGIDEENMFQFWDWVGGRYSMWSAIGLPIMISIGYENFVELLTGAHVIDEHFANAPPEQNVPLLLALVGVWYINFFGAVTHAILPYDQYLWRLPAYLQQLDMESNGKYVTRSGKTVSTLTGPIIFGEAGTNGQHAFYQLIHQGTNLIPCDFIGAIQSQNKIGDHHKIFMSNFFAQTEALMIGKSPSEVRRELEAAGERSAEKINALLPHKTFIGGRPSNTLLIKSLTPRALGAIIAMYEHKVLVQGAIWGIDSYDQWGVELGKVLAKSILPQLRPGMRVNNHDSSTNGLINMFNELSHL

[4] = biological target: T. brucei lysate proteins (Trypanosoma brucei brucei, UniProt Q04933); assay type: binding
T. brucei lysate proteins (Trypanosoma brucei brucei, UniProt Q04933), sequence (Q04933 whole entry): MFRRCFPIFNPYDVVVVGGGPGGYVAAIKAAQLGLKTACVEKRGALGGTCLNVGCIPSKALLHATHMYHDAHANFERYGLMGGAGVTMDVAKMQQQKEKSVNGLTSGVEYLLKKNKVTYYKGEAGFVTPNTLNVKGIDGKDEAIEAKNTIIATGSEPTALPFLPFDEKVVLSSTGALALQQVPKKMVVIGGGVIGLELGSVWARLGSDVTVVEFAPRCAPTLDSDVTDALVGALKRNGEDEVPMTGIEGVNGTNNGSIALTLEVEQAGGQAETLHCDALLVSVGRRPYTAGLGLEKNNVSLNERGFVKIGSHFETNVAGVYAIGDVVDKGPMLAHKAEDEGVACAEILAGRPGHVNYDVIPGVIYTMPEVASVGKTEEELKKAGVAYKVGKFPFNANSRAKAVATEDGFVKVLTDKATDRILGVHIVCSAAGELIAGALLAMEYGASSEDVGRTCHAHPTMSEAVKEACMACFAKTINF

[5] = biological target: T1, HeLa cell extract proteins (Homo sapiens, UniProt O76071); assay type: binding
T1 construct: endogenous in cells; host or cells: HeLa cell extract
T1 sequence (O76071 whole entry): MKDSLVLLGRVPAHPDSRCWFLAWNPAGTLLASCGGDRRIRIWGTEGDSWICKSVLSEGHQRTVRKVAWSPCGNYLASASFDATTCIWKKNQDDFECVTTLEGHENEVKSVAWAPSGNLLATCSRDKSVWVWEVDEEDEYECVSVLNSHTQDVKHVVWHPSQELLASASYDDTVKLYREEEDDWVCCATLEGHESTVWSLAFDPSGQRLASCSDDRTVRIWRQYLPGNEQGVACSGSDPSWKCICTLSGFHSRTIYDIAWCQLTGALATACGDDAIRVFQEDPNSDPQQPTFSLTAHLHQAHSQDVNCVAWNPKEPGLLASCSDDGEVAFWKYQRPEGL

TbDHFR = conditions: direct enzyme assays; cited from earlier work
TbTS = conditions: direct enzyme assays; read-out: TbTS Ki; cited from earlier work
[6] = tested on: MTHF complex (DHCH protein in humans); experiment: Multitargeted bead mixture competition, HeLa cell extract; assay type: binding, human; conditions: bead mixture; HeLa cell extract
[7] = biological target: T. brucei lysate proteins (Trypanosoma brucei brucei, UniProt P38973); assay type: binding; conditions: protein TB427.10.1070 CELL DIVISION PROTEIN KINASE 2 HOMOLOG 1 (CRK1)
T. brucei lysate proteins (Trypanosoma brucei brucei, UniProt P38973), sequence (P38973 whole entry): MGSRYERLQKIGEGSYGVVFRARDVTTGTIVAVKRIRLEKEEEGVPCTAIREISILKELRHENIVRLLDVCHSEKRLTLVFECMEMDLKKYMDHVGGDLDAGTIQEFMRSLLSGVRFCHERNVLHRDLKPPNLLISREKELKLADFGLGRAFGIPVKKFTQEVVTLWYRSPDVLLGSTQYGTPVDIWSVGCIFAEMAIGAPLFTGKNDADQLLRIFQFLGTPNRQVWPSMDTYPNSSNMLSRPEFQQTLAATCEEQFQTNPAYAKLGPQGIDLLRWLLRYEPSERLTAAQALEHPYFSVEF

PTR1 = biological target: T2, PTR1 (Leishmania major, UniProt Q01782); experiment: biochemical; conditions: competing free ligand 100 μM; bead = immobilized compound of the row; L. major lysate; read-out: % Inhibition of protein binding to bead, PTR-1, L. major
T2 sequence (Q01782 1-288): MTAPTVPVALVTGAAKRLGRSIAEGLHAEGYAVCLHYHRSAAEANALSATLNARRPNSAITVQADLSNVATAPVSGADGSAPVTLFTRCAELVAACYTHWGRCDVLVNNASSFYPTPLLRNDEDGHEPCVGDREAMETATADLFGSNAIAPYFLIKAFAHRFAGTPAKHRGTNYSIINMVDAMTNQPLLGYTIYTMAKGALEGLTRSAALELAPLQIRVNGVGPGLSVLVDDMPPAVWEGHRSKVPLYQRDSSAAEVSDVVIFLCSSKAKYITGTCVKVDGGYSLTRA

[8] = biological target: T3, HeLa cell extract proteins (Homo sapiens, UniProt Q8N0W3); assay type: binding; conditions: protein FUK; HeLa
T3 construct: endogenous in cells; host or cells: HeLa cell extract
T3 sequence (Q8N0W3 1-1084): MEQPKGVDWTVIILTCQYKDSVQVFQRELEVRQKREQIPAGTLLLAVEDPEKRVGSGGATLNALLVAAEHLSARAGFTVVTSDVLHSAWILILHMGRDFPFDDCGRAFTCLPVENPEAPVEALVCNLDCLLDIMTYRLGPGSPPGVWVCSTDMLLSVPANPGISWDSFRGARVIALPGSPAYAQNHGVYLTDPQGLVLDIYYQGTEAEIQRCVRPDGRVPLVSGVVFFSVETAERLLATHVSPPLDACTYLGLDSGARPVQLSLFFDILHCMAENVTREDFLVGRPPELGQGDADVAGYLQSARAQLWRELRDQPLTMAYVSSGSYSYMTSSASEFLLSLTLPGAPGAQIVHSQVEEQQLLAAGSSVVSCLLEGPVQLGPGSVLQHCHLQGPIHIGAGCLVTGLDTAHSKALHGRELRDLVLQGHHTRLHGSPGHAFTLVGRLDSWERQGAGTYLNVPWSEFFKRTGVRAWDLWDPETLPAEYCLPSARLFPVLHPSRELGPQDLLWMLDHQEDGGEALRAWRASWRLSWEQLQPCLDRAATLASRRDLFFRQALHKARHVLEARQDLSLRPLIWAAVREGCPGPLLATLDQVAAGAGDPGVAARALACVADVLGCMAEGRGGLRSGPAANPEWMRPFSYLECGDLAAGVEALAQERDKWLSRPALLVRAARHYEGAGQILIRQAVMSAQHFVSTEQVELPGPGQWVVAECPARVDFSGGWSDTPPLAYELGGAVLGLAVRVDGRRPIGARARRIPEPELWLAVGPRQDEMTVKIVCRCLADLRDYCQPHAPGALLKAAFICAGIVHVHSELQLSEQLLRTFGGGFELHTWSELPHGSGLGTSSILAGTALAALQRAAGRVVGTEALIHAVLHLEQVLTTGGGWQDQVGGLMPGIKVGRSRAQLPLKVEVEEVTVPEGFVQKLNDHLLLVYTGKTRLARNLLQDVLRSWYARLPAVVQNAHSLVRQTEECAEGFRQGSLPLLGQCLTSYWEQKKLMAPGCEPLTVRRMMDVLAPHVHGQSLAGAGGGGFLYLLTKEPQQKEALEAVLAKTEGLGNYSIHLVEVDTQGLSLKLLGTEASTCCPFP

TB927.8.6760 = experiment: Multitargeted bead mixture competition; assay type: binding; conditions: free ligand 100 μM, T. brucei lysate
[9] = tested on: BRANCHED-CHAIN AMINO ACID AMINOTRANSFERASE, PUTATI (TB427.02.4590); experiment: Multitargeted bead mixture competition; assay type: binding; conditions: free ligand 100 μM, T. brucei lysate
[10] = tested on: PEPTIDYL-PROLYL CIS-TRANS ISOMERASE (CYCLOPHILIN- (TB427TMP.211.1350)); experiment: Multitargeted bead mixture competition; assay type: binding; conditions: free ligand 100 μM, T. brucei lysate
TB427.04.1870 = experiment: Multitargeted bead mixture competition; assay type: binding; conditions: free ligand 100 μM, T. brucei lysate
[11] = tested on: HYPOTHETICAL PROTEIN, CONSERVED (TB427.03.2670); experiment: Multitargeted bead mixture competition; assay type: binding; conditions: free ligand 100 μM, T. brucei lysate
[12] = tested on: HYPOTHETICAL PROTEIN, CONSERVED (TB427.05.3680); experiment: Multitargeted bead mixture competition; assay type: binding; conditions: free ligand 100 μM, T. brucei lysate
[13] = tested on: PHOSPHATIDYLINOSITOL-4-PHOSPHATE 5-KINASE, PUTATIV (TB427.10.3890); experiment: Multitargeted bead mixture competition; assay type: binding; conditions: free ligand 100 μM, T. brucei lysate
[14] = tested on: SUCCINYL-COA SYNTHETASE ALPHA SUBUNIT, PUTATIVE (Tb427.03.2230); experiment: Multitargeted bead mixture competition; assay type: binding; conditions: free ligand 100 μM, T. brucei lysate
T. brucei = tested on: T. brucei; design: method as in ref 5 (SI); conditions: ref 5 (SI); read-out: EC50 against T. brucei, in vitro cell growth; cited from earlier work
TB927.7.1340 = experiment: Multitargeted bead mixture competition; assay type: binding; conditions: free ligand 100 μM, T. brucei lysate
[15] = protein TB927.10.5620 FRUCTOSE-BI[…], GLYCOSOMAL, vehicle control = 1
[16] = protein TB427.10.10980 HEAT SHOCK PROTEIN 83, vehicle control = 1
[17] = protein TB427.01.3830 GLUCOSE-6-PHOSPHATE ISOMERASE, GLYCOSOMAL, vehicle control = 1
[18] = protein TB427TMP.01.8470 DIHYDROLIPOYL DEHYDROGENASE, vehicle control = 1

T. brucei lysate proteins (Trypanosoma brucei brucei, UniProt P12861), sequence (P12861 whole entry): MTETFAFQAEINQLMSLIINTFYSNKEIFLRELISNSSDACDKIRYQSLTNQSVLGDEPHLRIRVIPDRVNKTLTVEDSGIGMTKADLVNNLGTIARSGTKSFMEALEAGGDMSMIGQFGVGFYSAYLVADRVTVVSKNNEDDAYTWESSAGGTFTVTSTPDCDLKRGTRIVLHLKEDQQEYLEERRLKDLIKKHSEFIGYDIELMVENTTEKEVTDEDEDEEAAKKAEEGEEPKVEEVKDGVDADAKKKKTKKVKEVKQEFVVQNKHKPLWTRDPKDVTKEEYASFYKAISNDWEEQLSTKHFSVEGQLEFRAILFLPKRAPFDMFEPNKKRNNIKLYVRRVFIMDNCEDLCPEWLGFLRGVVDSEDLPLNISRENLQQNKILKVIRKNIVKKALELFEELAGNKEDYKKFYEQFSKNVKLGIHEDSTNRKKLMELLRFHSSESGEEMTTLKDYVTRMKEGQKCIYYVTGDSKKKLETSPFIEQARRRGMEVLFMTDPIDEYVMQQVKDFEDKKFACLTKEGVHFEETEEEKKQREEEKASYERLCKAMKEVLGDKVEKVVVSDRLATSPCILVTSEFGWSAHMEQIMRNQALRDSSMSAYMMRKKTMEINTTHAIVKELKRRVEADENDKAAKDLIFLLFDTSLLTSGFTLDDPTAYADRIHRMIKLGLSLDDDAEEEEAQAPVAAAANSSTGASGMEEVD
T. brucei lysate proteins (Trypanosoma brucei brucei, UniProt P07752), sequence (P07752 whole entry): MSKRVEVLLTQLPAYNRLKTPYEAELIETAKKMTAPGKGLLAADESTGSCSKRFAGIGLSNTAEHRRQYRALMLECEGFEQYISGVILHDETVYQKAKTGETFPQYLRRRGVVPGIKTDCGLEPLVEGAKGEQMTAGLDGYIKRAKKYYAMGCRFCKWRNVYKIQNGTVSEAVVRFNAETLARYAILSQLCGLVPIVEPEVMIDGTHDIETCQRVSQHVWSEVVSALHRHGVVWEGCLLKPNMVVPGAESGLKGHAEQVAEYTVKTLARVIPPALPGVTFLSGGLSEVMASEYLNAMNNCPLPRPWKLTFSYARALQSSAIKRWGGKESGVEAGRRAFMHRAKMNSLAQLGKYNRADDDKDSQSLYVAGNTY

Row | SMILES | fold change vs vehicle control [1, 15] | fold change vs vehicle control [2, 16] | fold change vs vehicle control [3, 17] | fold change vs vehicle control [4, 18] | fold changes relative to vehicle control ([5]; HeLa, protein CIAO1) | fold change - vehicle control [7] | inhibition at 100 µM (PTR1) [%] | fold changes relative to vehicle control [8] | also measured
1 | Nc1nc2c(c(=O)[nH]1)N(C=O)C(CNc1ccc(C(=O)N[C@@H](CCC(=O)O)C(=O)O)cc1)CN2 (stereo partly drawn) [LEU, leucovorin] | 1.22 | 1.64 | 1.22 | 0.93 | 0.94 |  |  |  | 
2 | Nc1nc2[nH]cc(CCc3ccc(C(=O)N[C@@H](CCC(=O)O)C(=O)O)cc3)c2c(=O)[nH]1 [PTX, pemetrexed] |  |  |  |  |  |  |  |  | Ki (TbDHFR): 0.29 ± 0.02 µM; fold change vs vehicle control [1]: 1.11; fold change vs vehicle control [2]: 0.76; fold change vs vehicle control [3]: 0.85; fold change vs vehicle control [4]: 0.97; Ki (TbTS): 20.5 µM; fold changes relative to vehicle control [5]: 0.86
3 | CCCCCCOc1ccc(Cc2cnc(N)nc2N)cc1 [compound 1] |  |  |  |  |  | 0.76 | < 50 | 0.96 | inhibition, all subunits of the MTHF complex [6]: > 70%
4 | CCCCCCOc1cccc(Cc2cnc(N)nc2N)c1 [compound 2] |  |  |  |  |  | 0.86 | < 50 | 1.11 | 
5 | Nc1nc2cccc(-c3ccccc3)c2n1Cc1ccc(Cl)c(Cl)c1 [compound 3] |  |  |  |  |  | 0.91 | < 50 | 1.07 | percentage of competition from bead binding (TB927.8.6760): 20%; percentage of competition from bead binding [9]: 51%; percentage of competition from bead binding [10]: 38%; percentage of competition from bead binding (TB427.04.1870): 47%; percentage of competition from bead binding [11]: 62%; percentage of competition from bead binding [12]: 68%; percentage of competition from bead binding [13]: -23%; percentage of competition from bead binding [14]: 10%; EC50 (T. brucei): 10 µM; percentage of competition from bead binding (TB927.7.1340): 40%
6 | NCCOCCOCC(=O)Nc1nc2ncc(CNc3ccc(C(=O)NC(CCC(=O)O)C(=O)O)cc3)nc2c(=O)[nH]1 (stereo not drawn) [compound 6] | 1.2 | 1.41 | 0.98 | 0.97 | 0.93 |  |  |  | 
7 | NCCCNc1ccc(C(=O)NC(CCC(=O)O)C(=O)O)cc1 (stereo not drawn) [compound 7] | 1.08 | 1 | 0.88 | 1.05 | 0.91 |  |  |  | 
